Here are results for seven molecules from paper PMC4849045, “Hepatoprotective Limonoids from Andiroba (Carapa guianensis)” (International Journal of Molecular Sciences, 2016).

Read-outs that look alike come from different tables or passages of the source.

Data set [1] deals with LPS-activated NO production in mouse peritoneal macrophages. To be noted: cited from earlier work; for Inhibition (%) of LPS-activated NO production: mean ± S.E.M. (n = 4); for IC50: mouse peritoneal macrophages, read-out: IC50, inhibition of LPS-activated NO production.
Data set [2] has as its system mouse peritoneal macrophages. To be noted: mean ± S.E.M. (n = 4), cited from earlier work.
A further data set concerns L929 cells. Kind of data set: TNF-α-induced cytotoxicity in L929 cells (MTT assay). In kind it is cell-based. To be noted: Mus musculus; for inhibition at 3 µM / inhibition at 10 µM / inhibition at 30 µM / inhibition at 1 µM: read-out: Inhibition (%) of TNF-α-induced cytotoxicity. Here is the method:
The effects of the limonoids (1–17) on the sensitivity of hepatocytes to TNF-α were assessed by measuring TNF-α-induced decreases in the viability of L929 cells, a TNF-α-sensitive cell line, by using the MTT assay. In the absence of a test sample, the cells incubated with 1 ng/mL TNF-α for 44 h were compared with those not incubated with TNF-α.
Assay for the TNF-α-induced cytotoxicity in L929 cells was performed as described previously. Silybin was used as a reference compound [36].
Background: Tetrazolium assays rely on reduction of a dye to a coloured formazan, in cell work by metabolically active cells.

The subject of data set [3] is primary cultured mouse hepatocytes. As to the kind of experiment: D-GalN-induced cytotoxicity in primary cultured mouse hepatocytes (MTT assay). Particulars: Hepatocyte, read-out: Inhibition (%) of D-GalN-induced cytotoxicity.
Protocol: Assay for the D-GalN-induced cytotoxicity in primary cultured mouse hepatocytes was performed as described previously [33, 35, 36].
Data set [4] relates to LPS-activated NO production in mouse peritoneal macrophages. As to the kind of experiment: LPS-induced NO production in mouse peritoneal macrophages. In kind it is cell-based. Particulars: Peritoneal macrophage; for IC50: read-out: IC50, inhibition of LPS-activated NO production; for inhibition at 3 µM / inhibition at 10 µM / inhibition at 30 µM / inhibition at 100 µM: read-out: Inhibition (%) of LPS-activated NO production. Here is the method:
The effects of limonoids (1–17) on NO production were examined to provide an estimation of macrophage activation levels in LPS-treated mouse peritoneal macrophages.
Assay for NO production in TGC-induced mouse peritoneal macrophages was performed as described previously. N^G-Monomethyl-L-arginine (L-NMMA) and caffeic acid phenethyl ester (CAPE) were used as reference compounds [33, 36].

A short description of data set [5]: Cell viability of LPS-treated mouse peritoneal macrophages (MTT assay). To be noted: LPS-treated TGC-induced mouse peritoneal macrophages, mean ± S.E.M. (n = 4), read-out: cell viability (%) in MTT assay (values in parentheses) (converted); for viability at 100 µM: # = cytotoxic effects were observed. In kind it is cell-based.
Setting [6] is: 10 µM, # = cytotoxic effects were observed.
The mark [7] stands for this setting: 30 µM, # = cytotoxic effects were observed.
[8] abbreviates: 100 µM, # = cytotoxic effects were observed.
Where [9] appears, read: L929, 3 µM, 1 ng/mL TNF-α, 44 h, mean ± S.E.M. (n = 4).
Setting [10] is: L929, 10 µM, 1 ng/mL TNF-α, 44 h, mean ± S.E.M. (n = 4).
Where [11] appears, read: L929, 30 µM, 1 ng/mL TNF-α, 44 h, mean ± S.E.M. (n = 4).

The IC50 is the concentration that inhibits the measured activity by half. In the case of `O=C(/C=C/c1ccc(O)c(O)c1)OCCc1ccccc1` [CAPE, caffeic acid phenethyl ester, reference compound], the “Inhibition (%) of LPS-activated NO production” value in data set [1] (3 µM) is 5.9 ± 5.2%; in data set [1] (10 µM), 44.4 ± 3.2%; in data set [1] (30 µM), 86.2 ± 1.1%; in data set [1] (100 µM), 99.6 ± 0.1%. Besides, the concentration for half-maximal inhibition (IC50) in data set [1] was 11 µM. In addition, the “cell viability (%) in MTT assay (values in parentheses)” value (“cell viability (%) in MTT assay” for short) is reported as 95.4 ± 0.7% in data set [2] (3 µM), 70.0 ± 4.0% in data set [2] (setting [6]), 71.4 ± 6.0% in data set [2] (setting [7]) and 53.0 ± 1.4% in data set [2] (setting [8]).

As to `[H]/N=C(/NC)NCCC[C@H](N)C(=O)O` [L-NMMA, N^G-monomethyl-L-arginine, reference compound], the “Inhibition (%) of LPS-activated NO production” value is 1.4 ± 2.8% in data set [1] (3 µM), 19.9 ± 2.8% in data set [1] (10 µM), 43.0 ± 2.1% in data set [1] (30 µM) and 70.9 ± 1.6% in data set [1] (100 µM). For the same molecule, in data set [1], the concentration for half-maximal inhibition (IC50) is 36 µM. Also, the “cell viability (%) in MTT assay” value is given as 101.1 ± 5.7% in data set [2] (3 µM), 100.7 ± 6.2% in data set [2] (setting [6]), 102.6 ± 4.2% in data set [2] (setting [7]) and 106.4 ± 4.6% in data set [2] (setting [8]).

In general, inhibition refers to the relative decrease from the control value, in per cent. Take `CC1(C)C(=O)C=C[C@@]2(C)C1C[C@@H](O)[C@]1(C)C2CC[C@@]2(C)[C@H](c3ccoc3)OC(=O)[C@H]3O[C@]321` (stereo partly drawn) [compound 4, 7-deacetoxy-7α-hydroxygedunin]: the inhibition at 3 µM in the data set with L929 cells (L929, 44 h) is -6.5 ± 2.4%; in data set [3], -2 ± 1.4%. Moreover, the inhibition at 10 µM is 2.7 ± 2.3% with L929 cells (L929, 44 h) and -6.3 ± 0.5% in data set [3]. The inhibition at 30 µM with L929 cells (L929, 44 h) is 36.5 ± 1.8%; in data set [3] it was -8 ± 0.4%. The “Inhibition (%) of LPS-activated NO production” value in data set [1] (3 µM) is reported as 15.7 ± 4.6%; in data set [1] (10 µM) it was 55.7 ± 4.0%; in data set [1] (30 µM), 98.8 ± 0.4%; in data set [1] (100 µM) it was 100.2 ± 0.2%. The IC50 in data set [1] was 8.7 µM. Further, the “cell viability (%) in MTT assay” value in data set [2] (3 µM) is listed as 110.3 ± 5.9%; in data set [2] (10 µM), 106.6 ± 3.1%; in data set [2] (30 µM) it was 96.3 ± 4.6%; in data set [2] (setting [8]), 2.6 ± 0.5%. Moreover, the inhibition at 100 µM in data set [3] was -4.1 ± 0.7%.

On to `CC(=O)O[C@@H]1[C@H](O)C2C(C)(C)C(=O)C=C[C@]2(C)C2CC[C@@]3(C)[C@H](c4ccoc4)OC(=O)[C@H]4O[C@]43[C@@]21C` (stereo partly drawn) [compound 6, 6α-hydroxygedunin], for which the inhibition at 1 µM in the data set with L929 cells (L929, 1 µM, 1 ng/mL TNF-α, 44 h, mean ± S.E.M. (n = 4)) was determined as 8.1 ± 1.9%. Also, the inhibition at 3 µM with L929 cells (setting [9]) is 6.7 ± 1.5%; in data set [3], -7.2 ± 2.4%. Moreover, the inhibition at 10 µM in the data set with L929 cells (setting [10]) was 12.1 ± 3%; in data set [3], -9.4 ± 0.8%. Also, the inhibition at 30 µM is 28.3 ± 1.7% in the data set with L929 cells (setting [11]) and -0.1 ± 0.7% in data set [3]. Moreover, the “Inhibition (%) of LPS-activated NO production” value in data set [1] (3 µM) was 7.7 ± 7.1%; in data set [1] (10 µM), 20.7 ± 4.3%; in data set [1] (30 µM), 64.0 ± 3.1%; in data set [1] (100 µM), 97.3 ± 0.3%. Besides, the IC50 in data set [1] was 19.1 µM. Moreover, the “cell viability (%) in MTT assay” value was 88.4 ± 3.0% in data set [2] (3 µM), 87.6 ± 4.0% in data set [2] (10 µM), 90.4 ± 2.6% in data set [2] (30 µM) and 82.2 ± 4.2% in data set [2] (setting [8]). Further, the inhibition at 100 µM in data set [3] is -2.8 ± 0.5%.

For the molecule `C=C1[C@@H]2CC[C@@]3(C)[C@H](c4ccoc4)OC(=O)C[C@]13O[C@H]1CC(=O)C(C)(C)[C@H](CC(=O)OC)[C@]12C` [compound 7, methyl angolensate], in the data set with L929 cells (L929, 44 h), the inhibition at 1 µM is -0.5 ± 3.5%. Besides, the inhibition at 3 µM was 0.6 ± 2.9% with L929 cells (L929, 44 h) and -2.1 ± 1.2% in data set [3]. The inhibition at 10 µM is 13.3 ± 2.6% in the data set with L929 cells (L929, 44 h) and -7.5 ± 0.9% in data set [3]. For the same molecule, the inhibition at 30 µM is 24.6 ± 2.9% in the data set on L929 cells (L929, 44 h) and -6.3 ± 0.7% in data set [3]. Moreover, the “Inhibition (%) of LPS-activated NO production” value is 10.1 ± 4.2% in data set [1] (3 µM), 20.0 ± 8.1% in data set [1] (10 µM), 42.2 ± 3.5% in data set [1] (30 µM) and 24.0 ± 4.2% in data set [1] (100 µM). The IC50 in data set [1] was more than 100 µM. Moreover, the “cell viability (%) in MTT assay” value is 108.8 ± 11.0% in data set [2] (3 µM), 108.8 ± 5.5% in data set [2] (10 µM), 111.0 ± 4.5% in data set [2] (30 µM) and 78.1 ± 5.3% in data set [2] (setting [8]). In data set [3], the inhibition at 100 µM was -6.6 ± 1%.

The viability is a read-out of living cells in per cent, often relative to untreated cells. For `CCC(=O)OC1C2(OC(C)=O)C(OC(C)=O)C3(C)CC24OC2(C)OC15C(CC(=O)OC)C1(C)CC(c6occc6C1=O)C5(O2)C41COC(=O)CC31` (centres unmarked) [compound 16, guianolide A], in data set [4] (Mus musculus), the concentration for half-maximal inhibition (IC50) turned out to be 77.9 µM, the inhibition at 3 µM stood at 1.9 ± 3.2%, the inhibition at 10 µM stood at 3.2 ± 1.4% and the inhibition at 30 µM was 12.7 ± 1.6%. For the same molecule, the inhibition at 100 µM in data set [4] (Mus musculus) worked out at 71.3 ± 3.2%. Besides, in data set [5], the viability at 3 µM was 96.9%, the viability at 10 µM was 102%, the viability at 30 µM is 98.7% and the viability at 100 µM is 106%. For the same molecule, in the data set with L929 cells (setting [9]), the inhibition at 3 µM was -6.2 ± 5.2%. Also, the inhibition at 10 µM with L929 cells (setting [10]) is -4.5 ± 1.9%. Moreover, the inhibition at 30 µM in the data set on L929 cells (setting [11]) was -7.3 ± 3%. Also, in data set [3], the inhibition at 3 µM came to 9.2 ± 4.2%, the inhibition at 10 µM worked out at 11 ± 5.3%, the inhibition at 30 µM was found to be 9.8 ± 2.8% and the inhibition at 100 µM was found to be 23.5 ± 3.5%.

As to `COC(=O)CC1C(C)C(=O)C2(CC3(O)C4CC(=O)OC(c5ccoc5)C4(C)CCC3(O)O2)C(OC(=O)C(C)C)C1(C)C` (centres unmarked) [compound 17, carapanolide A], the inhibition at 3 µM in data set [4] (Mus musculus, 3 µM, mean ± S.E.M. (n = 4)) was -0.6 ± 2.1%; with L929 cells (setting [9]), 8.8 ± 6.5%; in data set [3], -6.8 ± 1.2%. In addition, the inhibition at 10 µM is 1.2 ± 2% in data set [4] (Mus musculus, 10 µM, mean ± S.E.M. (n = 4)); 21.5 ± 5.5% with L929 cells (setting [10]); -8.3 ± 0.7% in data set [3]. Also, the inhibition at 30 µM was 41.1 ± 1% in data set [4] (Mus musculus, 30 µM, mean ± S.E.M. (n = 4)); 58.2 ± 4.7% with L929 cells (setting [11]); -4.5 ± 0.6% in data set [3]. Besides, the inhibition at 100 µM was 4.9 ± 1.8% in data set [4] (Mus musculus, 100 µM, mean ± S.E.M. (n = 4)) and -7 ± 0.6% in data set [3]. Moreover, the half-maximal inhibitory concentration (IC50) in data set [4] (mouse peritoneal macrophages) was more than 100 µM; in the data set on L929 cells (L929 cells, 1 ng/mL TNF-α, 44 h, read-out: IC50, inhibition of TNF-α-induced decrease in cell viability) it was 25.3 µM. The viability at 3 µM in data set [5] was 103%. Also, the viability at 10 µM in data set [5] is 104%. In addition, the viability at 30 µM in data set [5] was 110%. The viability at 100 µM in data set [5] was 91.3%.
